Residues, ends and D or L forms follow the SMILES beside them. *: point of attachment. Cbz = O=C(OCc1ccccc1)*; CH2F = FC*
How the values were obtained:
Type in all cases: cell-based, human
ML-2 [1] = assay: Cytokine induction, electrochemiluminescence assay of culture supernatant; settings: for Effect of caspase inhibitor on secreted IL-1β induction by Compound 1: 1000 nM Compound 1 with 1, 10, 100 μM inhibitor; for Secreted IL-1β in cell culture supernatant: 24, 48 and 72 hours, doses conferring similar caspase3/7 activation and viability loss; for Effect of second agent on Compound 1 induced IL-1β: ML-2 (FIG. 12)
Procedure: (§1) For cytokine assays on AML cell lines, cells were seeded at 1 million per mL, 3 mL per well of 6-well plates and allowed set overnight. The next day, cells were treated with 3 μL 1000× working stock of compounds of interest.
(§2) Human AML cell lines, HL-60 (CCL-240), KG-1 (CCL-246), ML-2 (ACC-15), MOLM-13 (ACC-554), MV-4-11 (CRL-9591), NOMO-1 (ACC-542), TF-1 (CRL-2003), THP-1 (TIB-202), and U937 (CRL-1593) were obtained from American Type Culture Collection (ATCC; Manassas, VA) or Deutsche Sammlung von Mikroorganismen and Zellkulturen (DSMZ, Germany) cell banks. Acute myeloid leukemia cell lines were maintained in RPMI-1640 (ATCC Cat No. 30-2001) containing 20% fetal bovine serum (FBS) (Corning Cat No. 35-010-CV) and maintained in humidified incubators at 5% carbon dioxide.
(§3) IL-1α (Meso Scale Disgnostics, Cat No. K151RBD), IL-1β (Meso Scale Disgnostics, Cat No. K151QPD), IL-1RA (Meso Scale Disgnostics, Cat No. K151WTD), IL-18 (Meso Scale Disgnostics, Cat No. K151VJK), TNFa (Meso Scale Disgnostics, Cat No. K151QWD), VEGF Meso Scale Disgnostics, Cat No. K151RHD) levels were measured by (Meso Scale Disgnostics assay kits following manufacturer's instructions. Measurements were made on a MESO™ SECTOR S 600 plate reader (Meso Scale Disgnostics).
(§4) Cell proliferation (CTG) and caspase 3/7 activation (IncuCyte) were analyzed using GraphPad Prism. Electrochemiluminescence data was analyzed using MSD Discovery Workbench platform.
(§5) The level of intracellular pro IL-1β and released IL-1β in eight AML cell lines and normal PBMC treated with a titration of Compound 1 over a 48 hour period was assessed. (see FIGS. 1A-1C, Table 2). Supernatant IL-1βb level was induced over 5 fold in 6 out of 8 AML cell lines and normal PBMC upon Compound 1 treatment compared to DMSO (FIGS. 1A, 1B, and 1C, Table 2).

MV4-11 [2] = assay: as above; settings: for Effect of caspase inhibitor on secreted IL-1β induction by Compound 1: MV411, 1000 nM Compound 1 with 10 μM inhibitor
Procedure: as §1, §2, §3, §4, §5

ML-2 cells = assay: Immunoblot analysis of target proteins; settings: 24, 48 and 72 hours, doses conferring similar caspase3/7 activation and viability loss
Procedure: Cells were washed in ice-cold 1×PBS twice before harvest in Cell Extraction Buffer (ThermoFisher Cat No. FNN0011) supplemented with 1× Halt Protease Inhibitor Cocktail (ThermoFisher Cat No. 78429). Whole cell extracts were collected after centrifugation at 14,000 g for 10 minutes, resolved on 4-12% Bis-Tris Novex Precast Gels (ThermoFisher Cat No. WG1403A), transferred onto a nitrocellulose membrane using the Turboblot Turbo Transfer System (Bio-Rad), and probed with the indicated primary antibodies. Bound antibodies were detected with IRDye-680 or -800 conjugated secondary antibodies using a LI-COR scanner.
Antibodies used for immunoblot: mouse anti-human GSPT-1 mAb conjugated with AL647 (clone number GSPT1-164-17G9-G6, Celgene, San Diego, CA), IL-1β (R&D Systems, Cat No. AF-201-NA), cleaved caspase 3 (Cell Signaling, Cat No. 9664S), alpha-tubulin (Cell Signaling, Cat No. 3873S), cleaved Caspase-8 (Cell Signaling, Cat No. 9748S), Caspase-1 (Cell Signaling, Cat No. 3866S), HA tag (Cell Signaling, Cat No. 3724), phosphor-eIF2a (Cell Signaling, Cat No. 9721), total eIF2a (Cell Signaling, Cat No. 9722), ATF4 (Cell Signaling, Cat No. 11815S), CHOP (Abcam, Cat No. 11419), GAPDH (Cell Signaling, Cat No. 5174), rabbit anti-mouse 800 antibody (LI-COR Biosciences), rabbit anti-mouse 680 antibody (LI-COR Biosciences), mouse anti-rabbit 680 antibody (LI-COR Biosciences), mouse anti-rabbit 800 antibody (LI-COR Biosciences)
as §5

MOLM-13 = assay: Cytokine induction, electrochemiluminescence assay of culture supernatant; settings: for Effect of second agent on Compound 1 induced IL-1β: MOLM13 (FIG. 13)
Procedure: as §1, §2, §3, §4, §5

ML-2 [3] = assay: as above; settings: compounds at 1 μM, 72 hours
ML-2 [4] = assay: Caspase 8/FLICE activity colorimetric assay; settings: compounds at 1 μM, 24, 48 and 72 hours
Procedure: (§6) Next, tests were performed to see if caspase 8 activation alone is sufficient to mediate IL-1β induction. […] To ensure caspase 8 activity was captured at an appropriate time frame, caspase 8 activation levels at 24, 48 and 72 hours were measured (FIGS. 3C and 3D) using a caspase 8/FLICE activity colorimetric assay.

MV4-11 [5] = assay: Caspase 8/FLICE activity colorimetric assay; settings: compounds at 1 μM, 24, 48 and 72 hours
Procedure: as §6

MV4-11 [6] = assay: Cytokine induction, electrochemiluminescence assay of culture supernatant; settings: compounds at 1 μM, 72 hours
[7] = system: eight AML cell lines and normal PBMC; assay: IL-1 family cytokine induction across the cell panel; settings: most cell lines tested (FIG. 1B: ML-2); LPS as positive control
Procedure: as §1, §3, §5
The maturation of IL-1β can be mediated through classical caspase-1 inflammasome pathway, or a caspase-8 dependent non-canonical inflammasome signaling (Antonopoulos et al. J Biol Chem. 2015, 290(33):20167-84; Chauhan et al. Cell Rep. 2018, 25(9):2354-2368; and Schneider et al. Cell Rep. 2017, 21(13):3846-3859). To understand if classical caspase-1 mediated inflammasome pathway was activated by Compound 1, the levels of an inflammasome marker, IL-18, were tested in response to Compound 1 (FIG. 1B, Table 1), using a known inflammasome stimulant lipopolysaccharide (LPS) as positive control.

KG-1 = assay: Cytokine induction, electrochemiluminescence assay of culture supernatant
Procedure: as §1, §2, §3, §4, §5

U937 = assay: as above
Procedure: as §1, §2, §3, §4, §5

NOMO-1 = assay: as above
Procedure: as §1, §2, §3, §4, §5

TF-1 = assay: as above
Procedure: as §1, §2, §3, §4, §5

THP-1 = assay: as above
Procedure: as §1, §2, §3, §4, §5

[8] = system: Normal Peripheral Blood Mononuclear Cells; assay: as above; settings: PBMC
Procedure: Normal PBMCs were purchased from AllCells (Cat No. PB006F). Primary AML BMMC in were purchased from Conversant (SKU ID: BBM1000-E1110036458110215SH) or Fidelis Research (AML55, AML57, AML73, AML74, AML76, AML79, AML80, AML81, AML84, AML95). Bone marrow from health donor was purchased from StemCell Technologies (Cat No. 70001.2).
Normal PBMCs were cultured in RPMI-1640 (ATCC Cat No. 30-2001) containing 20% fetal bovine serum (Corning Cat No. 35-010-CV). Primary AML and bone marrows were cultured in Complete Medium Cytokines 1X: StemSpam™ Serum-Free Expansion Medium (StemCell Technologies Cat No. 09650) supplemented with 50 ng/mL Stem Cell Factor (Peprotech Cat No. 300-07), 50 ng/mL recombinant Human FLT3-Ligand (Peprotech Cat No. 300-19), 20 ng/mL recombinant human-interleukin-3 (Peprotech Cat No. 200-03), […] recombinant human-interleukin-6 (Peprotech Cat No. 200-06), 1 μM StemRegenin (StemCell Technologies Cat No. 72342), penicillin/streptomycin (Invitrogen Cat No. 15140122).
as §3, §4, §5

CC(C)(C)[C@H](NC(=O)c1ccc(N)c(Cl)c1)C(=O)N1CCC[C@H]1C(=O)N[C@H](C=O)CC(=O)O [VRT043198]
Effect of caspase inhibitor on secreted IL-1β induction by Compound 1 (ML-2 [1]; ML-2): did not suppress IL-1β induction to nearly the same extent as pan- or caspase 8 inhibitors | Effect of caspase inhibitor on secreted IL-1β induction by Compound 1 (MV4-11 [2]): did not suppress IL-1β induction to nearly the same extent as pan- or caspase 8 inhibitors

COC(=O)C[C@H](NC(=O)[C@H](C)NC(=O)[C@@H](NC(=O)OCc1ccccc1)C(C)C)C(=O)CF [Z-VAD-FMK] (Cbz-Val-Ala-Asp(OMe)-CH2F)
Effect of caspase inhibitor on secreted IL-1β induction by Compound 1 (ML-2 [1]; ML-2): significantly blocked | Effect of caspase inhibitor on secreted IL-1β induction by Compound 1 (MV4-11 [2]): significantly blocked

CC[C@H](C)[C@H](NC(=O)OCc1ccccc1)C(=O)N[C@@H](CCC(=O)OC)C(=O)N[C@H](C(=O)N[C@@H](CC(=O)OC)C(=O)CF)[C@@H](C)O [Z-VAD-IETD] (Cbz-IE(OMe)TD(OMe)-CH2F)
Effect of caspase inhibitor on secreted IL-1β induction by Compound 1 (ML-2 [1]; ML-2): significantly blocked | Effect of caspase inhibitor on secreted IL-1β induction by Compound 1 (MV4-11 [2]): significantly blocked

CC(C)C[C@H](NC(=O)[C@H](Cc1ccccc1)NC(=O)c1cnccn1)B(O)O [bortezomib]
Intracellular pro-IL-1β (immunoblot) (ML-2 cells): not able to induce high levels | IL-1β induced by ER stress / unfolded protein response inducers (ML-2 [1]; ML-2): Low levels of IL-1β was induced | Secreted IL-1β in cell culture supernatant (ML-2 [1]; ML-2): not able to induce high levels

C[C@]12CCC(=O)C=C1CC[C@@H]1[C@@H]2[C@@H](O)C[C@@]2(C)[C@H]1CC[C@]2(O)C(=O)CO [cortisol]
Effect of second agent on Compound 1 induced IL-1β (ML-2 [1]): can be suppressed | Effect of second agent on Compound 1 induced IL-1β (MOLM-13): can be suppressed

C[C@]12CCC(=O)C=C1CC[C@@H]1[C@@H]2C(=O)C[C@@]2(C)[C@H]1CC[C@]2(O)C(=O)CO [cortisone]
Effect of second agent on Compound 1 induced IL-1β (ML-2 [1]): can be suppressed | Effect of second agent on Compound 1 induced IL-1β (MOLM-13): can be suppressed

C[C@@H]1C[C@@H]([C@H](O)CC2CC(=O)NC(=O)C2)C(=O)[C@@H](C)C1 [cycloheximide, reference compound]
Intracellular pro-IL-1β (immunoblot) (ML-2 cells): not able to induce high levels | Secreted IL-1β in cell culture supernatant (ML-2 [1]; ML-2): not able to induce high levels

COc1cccc2c1C(=O)c1c(O)c3c(c(O)c1C2=O)C[C@@](O)(C(C)=O)C[C@@H]3O[C@H]1C[C@H](N)[C@H](O)[C@H](C)O1 [daunorubicin, reference compound]
Secreted IL-1β levels, panel of mechanistic compounds (ML-2 [3]): not able to induce secreted IL-1β as efficiently as Compound 1 | Caspase 8 activation level (ML-2 [4]): higher extent of caspase 8 activation than Compound 1 | Caspase 8 activation level (MV4-11 [5]): higher extent of caspase 8 activation than Compound 1 | Secreted IL-1β levels, panel of mechanistic compounds (MV4-11 [6]): not able to induce secreted IL-1β as efficiently as Compound 1

C[C@]12C=CC(=O)C=C1CC[C@@H]1[C@@H]2[C@@H](O)C[C@@]2(C)[C@H]1CC[C@]2(O)C(=O)CO [prednisolone]
Effect of second agent on Compound 1 induced IL-1β (ML-2 [1]): can be suppressed | Effect of second agent on Compound 1 induced IL-1β (MOLM-13): can be suppressed

C[C@]12C=CC(=O)C=C1CC[C@@H]1[C@@H]2C(=O)C[C@@]2(C)[C@H]1CC[C@]2(O)C(=O)CO [prednisone]
Effect of second agent on Compound 1 induced IL-1β (ML-2 [1]): can be suppressed | Effect of second agent on Compound 1 induced IL-1β (MOLM-13): can be suppressed

C/C=C(/C)C(=O)O[C@H]1C(C)=C2[C@H]([C@@H]1OC(=O)CCCCCCC)[C@@](C)(OC(C)=O)C[C@H](OC(=O)CCC)[C@@]1(O)[C@H]2OC(=O)[C@@]1(C)O [thapsigargin]
Intracellular pro-IL-1β (immunoblot) (ML-2 cells): not able to induce high levels | IL-1β induced by ER stress / unfolded protein response inducers (ML-2 [1]; ML-2): Low levels of IL-1β was induced | Secreted IL-1β in cell culture supernatant (ML-2 [1]; ML-2): not able to induce high levels

C[C@]12C=CC(=O)C=C1CC[C@H]1[C@@H]3C[C@@H](O)[C@](O)(C(=O)CO)[C@@]3(C)C[C@H](O)[C@@]12F [triamcinolone]
Effect of second agent on Compound 1 induced IL-1β (ML-2 [1]): can be suppressed | Effect of second agent on Compound 1 induced IL-1β (MOLM-13): can be suppressed

Z-YVAD
Effect of caspase inhibitor on secreted IL-1β induction by Compound 1 (ML-2 [1]; ML-2): did not suppress IL-1β induction to nearly the same extent as pan- or caspase 8 inhibitors | Effect of caspase inhibitor on secreted IL-1β induction by Compound 1 (MV4-11 [2]): did not suppress IL-1β induction to nearly the same extent as pan- or caspase 8 inhibitors

lipopolysaccharide [LPS, reference compound]
IL-18 levels (inflammasome marker) [7]: profound IL-18 induction at early time point (6 hrs) | IL-1β induction (KG-1): 17.67 | IL-18 induction (KG-1): 3.47 | IL-1β induction (U937): 1.44 | IL-18 induction (U937): 1.28 | IL-1β induction (NOMO-1): 3.11 | IL-18 induction (NOMO-1): 1.77 | IL-1β induction (ML-2 [1]; ML-2): 8.70 | IL-18 induction (ML-2 [1]; ML-2): 1.21 | IL-1β induction (TF-1): 1.12 | IL-18 induction (TF-1): 1.41 | IL-1β induction (THP-1): 96.62 | IL-18 induction (THP-1): 12.13 | IL-1β induction (MOLM-13; MOLM-13): 0.00 | IL-1β induction (MV4-11 [2]; MV4-11): 65.19 | IL-18 induction (MV4-11 [2]; MV4-11): 24.45 | IL-1β induction [8]: 174.15 | IL-18 induction [8]: 1.88

— patent US12090147B2, “Combination therapy with 2-(4-chlorophenyl)-N-((2-(2,6-dioxopiperidin-3-yl)-1-oxoisoindolin-5-yl)methyl)-2,2-difluoroacetamide” (Celgene Corporation, priority 2019, dated 2024)
